According to patent publication US3936463A, “Benzomorphanes” (priority 1972, dated 1976):

Legend:
in vivo = details: rat, sc
Protocol: (§1) The numbering of the compounds is the same as the numbering of the preparative examples. […] The ED50 and LD50 were calculated relative to the base.

rat tails = test: animal or person; details: for ED50: Rattus norvegicus, sc, read-out: Analgesic action in heat radiation test on rat tails, ED 50; for Therapeutic index LD 50 / ED 50 / Analgesic action in heat radiation test on rat tails, ED 50: rats, s.c.; for Therapeutic index LD 50 / ED 50: calculated from LD 50 and ED 50; for Analgesic action in heat radiation test on rat tails, ED 50: calculated relative to the base
Protocol: as §1

Morphine-dependent rats [1] = test: Morphine replacement action (elimination of withdrawal symptoms) in morphine-dependent rats; format: in vivo, rat; details: grade, scale not defined
Protocol: as §1

Morphine-dependent rats [2] = test: Morphine-antagonistic action (provocation of withdrawal symptoms) in morphine-dependent rats; format: in vivo, rat; details: grade, scale not defined
Protocol: as §1

[3] = system: Morphine-dependent monkeys; test: Morphine-replacement action (elimination of withdrawal symptoms) in morphine-dependent monkeys; format: in vivo, monkey; details: grade, scale not defined
Protocol: as §1

[4] = system: Morphine-dependent monkeys; test: Morphine-antagonistic action (provocation of withdrawal symptoms) in morphine-dependent monkeys; format: in vivo, monkey; details: grade, scale not defined
Protocol: as §1

## CCC12CCN(CC3CC3)C(Cc3ccc(OCCCCOC(C)=O)cc31)C2C (stereo not drawn) [Example 9, 2-Cyclopropylmethyl-5-ethyl-9-methyl-2'-[4-acetoxybutoxy-(1)]-6,7-benzomorphan]
In vivo
  LD50: > 500 mg/kg
Rat tails
  ED50: 0.61 mg/kg
  Therapeutic index LD 50 / ED 50: > 820
Morphine-dependent rats [1]
  Morphine replacement action (elimination of withdrawal symptoms): 0-1
Morphine-dependent rats [2]
  Morphine-antagonistic action (provocation of withdrawal symptoms): 1

## CCC(=O)OCCCOc1ccc2c(c1)C1(CC)CCN(CC3CC3)C(C2)C1C (stereo not drawn) [Example 2a, 2-Cyclopropylmethyl-5-ethyl-9-methyl-2'-[3-propionyloxy-propoxy-(1)]-6,7-benzomorphan]
In vivo
  LD50: 296 mg/kg
Rat tails
  ED50: 0.49 mg/kg
  Therapeutic index LD 50 / ED 50: 604
[3]
  Morphine-replacement action (elimination of withdrawal symptoms): 0
[4]
  Morphine-antagonistic action (provocation of withdrawal symptoms): 2
Morphine-dependent rats [1]
  Morphine replacement action (elimination of withdrawal symptoms): 0
Morphine-dependent rats [2]
  Morphine-antagonistic action (provocation of withdrawal symptoms): 2

## CC(C)=CCN1CCC2(C)c3cc(O)ccc3CC1C2C (stereo not drawn) [Pentazocine, reference compound]
In vivo
  LD50: 140 mg/kg
Rat tails
  ED50: 4.8 mg/kg
  Therapeutic index LD 50 / ED 50: 29
[4]
  Morphine-antagonistic action (provocation of withdrawal symptoms): 2
Morphine-dependent rats [1]
  Morphine replacement action (elimination of withdrawal symptoms): 1
Morphine-dependent rats [2]
  Morphine-antagonistic action (provocation of withdrawal symptoms): 2

## CCC12CCN(CC3CC3)C(Cc3ccc(OCC(C)COC(C)=O)cc31)C2C (stereo not drawn) [Example 6a, 2-Cyclopropylmethyl-5-ethyl-9-methyl-2'-[3-acetoxyisobutoxy-(1)]-6,7-benzomorphan]
Rat tails
  ED50: 0.42 mg/kg
[4]
  Morphine-antagonistic action (provocation of withdrawal symptoms): 3

## CCC12CCN(CC3CC3)C(Cc3ccc(OCCCOC(=O)c4cccnc4)cc31)C2C (stereo not drawn) [Example 20]
Rat tails
  ED50: 1.2 mg/kg
[4]
  Morphine-antagonistic action (provocation of withdrawal symptoms): 1

## CCC12CCN(CC3CC3)C(Cc3ccc(OCCCOC(=O)C(C)(C)C)cc31)C2C (stereo not drawn) [Example 4a, 2-Cyclopropylmethyl-5-ethyl-9-methyl-2'-[3-pivaloyloxy-propoxy-(1)]-6,7-benzomorphan]
In vivo
  LD50: > 500 mg/kg
Rat tails
  ED50: 0.97 mg/kg
  Therapeutic index LD 50 / ED 50: > 515
Morphine-dependent rats [1]
  Morphine replacement action (elimination of withdrawal symptoms): 0
Morphine-dependent rats [2]
  Morphine-antagonistic action (provocation of withdrawal symptoms): 1

## CCC12CCN(CC3CC3)C(Cc3ccc(OC(C)(C)COC(C)=O)cc31)C2C (stereo not drawn) [Example 11, 2-Cyclopropylmethyl-5-ethyl-9-methyl-[1-acetoxy-2-methyl-propoxy-(2)]-6,7-benzomorphan]
Rat tails
  ED50: 0.47 mg/kg
[4]
  Morphine-antagonistic action (provocation of withdrawal symptoms): 1

## CCC(=O)OCCCCOc1ccc2c(c1)C1(CC)CCN(CC3CC3)C(C2)C1C (stereo not drawn) [Example 10a]
In vivo
  LD50: > 500 mg/kg
Rat tails
  ED50: 0.62 mg/kg
  Therapeutic index LD 50 / ED 50: > 806
Morphine-dependent rats [1]
  Morphine replacement action (elimination of withdrawal symptoms): 0
Morphine-dependent rats [2]
  Morphine-antagonistic action (provocation of withdrawal symptoms): 2

## CCC12CCN(CC3CC3)C(Cc3ccc(OCCCOC(=O)c4ccccc4)cc31)C2C (stereo not drawn) [Example 4e, 2-Cyclopropylmethyl-5-ethyl-9-methyl-2'-[3-benzoyloxy-propoxy-(1)]-6,7-benzomorphan]
Rat tails
  ED50: 0.42 mg/kg
[4]
  Morphine-antagonistic action (provocation of withdrawal symptoms): 2

## CCOC(=O)C1(c2ccccc2)CCN(C)CC1 [Pethidine, reference compound]
In vivo
  LD50: 113 mg/kg
Rat tails
  ED50: 5.7 mg/kg
  Therapeutic index LD 50 / ED 50: 20

## CC(=O)OCCCOc1ccc2c(c1)C1(C)CCN(CC3CC3)C(C2)C1C (stereo not drawn) [Example 7, 2-Cyclopropylmethyl-5,9-dimethyl-2'-[3-acetoxypropoxy-(1)]-6,7-benzomorphan]
In vivo
  LD50: ~400 mg/kg
Rat tails
  ED50: 1.6 mg/kg
  Therapeutic index LD 50 / ED 50: ~ 258
Morphine-dependent rats [1]
  Morphine replacement action (elimination of withdrawal symptoms): 0
Morphine-dependent rats [2]
  Morphine-antagonistic action (provocation of withdrawal symptoms): 1

## C/C=C/C(=O)OCCCOc1ccc2c(c1)C1(CC)CCN(CC3CC3)C(C2)C1C (stereo not drawn) [Example 4d, 2-Cyclopropylmethyl-5-ethyl-9-methyl-2'-[3-crotonoyloxy-propoxy-(1)]-6,7-benzomorphan]
Rat tails
  ED50: 0.35 mg/kg
[4]
  Morphine-antagonistic action (provocation of withdrawal symptoms): 3
Morphine-dependent rats [1]
  Morphine replacement action (elimination of withdrawal symptoms): 0
Morphine-dependent rats [2]
  Morphine-antagonistic action (provocation of withdrawal symptoms): 2

## CCC(=O)OCCC(C)COc1ccc2c(c1)C1(CC)CCN(CC3CC3)C(C2)C1C (stereo not drawn) [Example 18]
Rat tails
  Analgesic action in heat radiation test on rat tails, ED 50: 1.36 mg/kg
[4]
  Morphine-antagonistic action (provocation of withdrawal symptoms): 2

## CCC12CCN(CC3CC3)C(Cc3ccc(OCCCOC(=O)COc4ccccc4)cc31)C2C (stereo not drawn) [Example 21a, 2-Cyclopropylmethyl-5-ethyl-9-methyl-2'-[3-phenoxyacetoxypropoxy-(1)]-6,7-benzomorphan]
Rat tails
  ED50: 1.2 mg/kg
[4]
  Morphine-antagonistic action (provocation of withdrawal symptoms): 2

## COc1ccc2c3c1O[C@H]1[C@@H](O)C=C[C@H]4[C@@H](C2)N(C)CC[C@@]341 [Codeine, reference compound]
In vivo
  LD50: 202 mg/kg
Rat tails
  ED50: 4.5 mg/kg
  Therapeutic index LD 50 / ED 50: 51
[3]
  Morphine-replacement action (elimination of withdrawal symptoms): 3
Morphine-dependent rats [1]
  Morphine replacement action (elimination of withdrawal symptoms): 3
Morphine-dependent rats [2]
  Morphine-antagonistic action (provocation of withdrawal symptoms): 0

## CCC(=O)OCCCOc1ccc2c(c1)C1(C)CCN(CC3CC3)C(C2)C1C (stereo not drawn) [Example 8, 2-Cyclopropylmethyl-5-9-dimethyl-2'-[3-propionyloxypropoxy-(1)]-6,7-benzomorphan]
In vivo
  LD50: ~425 mg/kg
Rat tails
  ED50: 1.6 mg/kg
  Therapeutic index LD 50 / ED 50: ~ 262
Morphine-dependent rats [1]
  Morphine replacement action (elimination of withdrawal symptoms): 1
Morphine-dependent rats [2]
  Morphine-antagonistic action (provocation of withdrawal symptoms): 1

## CCOC(=O)N(C)C(=O)OCCCOc1ccc2c(c1)C1(CC)CCN(CC3CC3)C(C2)C1C (stereo not drawn) [Example 23, 2-cyclopropylmethyl-5-ethyl-9-methyl-2'-[3-N-ethoxycarbonyl-N-methyl-carbamoyloxypropoxy-(1)]-6,7-benzomorphan]
Rat tails
  ED50: 1.2 mg/kg
[4]
  Morphine-antagonistic action (provocation of withdrawal symptoms): 2

## CCC12CCN(CC3CC3)C(Cc3ccc(OCCCOC(=O)C(C)C)cc31)C2C (stereo not drawn) [Example 2b, 2-Cyclopropylmethyl-5-ethyl-9-methyl-2'-[3-isobutyryloxy-propoxy-(1)]-6,7-benzomorphan]
In vivo
  LD50: ~300 mg/kg
Rat tails
  ED50: 1 mg/kg
  Therapeutic index LD 50 / ED 50: ~ 300
Morphine-dependent rats [1]
  Morphine replacement action (elimination of withdrawal symptoms): 0
Morphine-dependent rats [2]
  Morphine-antagonistic action (provocation of withdrawal symptoms): 1

## C/C=C/C(=O)OCC(C)COc1ccc2c(c1)C1(CC)CCN(CC3CC3)C(C2)C1C (stereo not drawn) [Example 6b, 2-Cyclopropylmethyl-5-ethyl-9-methyl-2'-[3-crotonoyloxyisobutoxy-(1)]-6,7-benzomorphan]
Rat tails
  ED50: 0.31 mg/kg
[4]
  Morphine-antagonistic action (provocation of withdrawal symptoms): 3

## CCC12CCN(CC3CC3)C(Cc3ccc(OCC(C)CCOC(C)=O)cc31)C2C (stereo not drawn) [Example 17, 2-Cyclopropylmethyl-5-ethyl-9-methyl-2'-[4-acetoxy-2-methylbutoxy-(1)]-6,7-benzomorphan]
Rat tails
  Analgesic action in heat radiation test on rat tails, ED 50: 0.96 mg/kg
[4]
  Morphine-antagonistic action (provocation of withdrawal symptoms): 2

## CCC12CCN(CC3CC3)C(Cc3ccc(OCCCCOC(=O)C(C)C)cc31)C2C (stereo not drawn) [Example 10b, 2-Cyclopropylmethyl-5-ethyl-9-methyl-2'-[4-isobutyryloxybutoxy-(1)]-6,7-benzomorphan]
In vivo
  LD50: > 500 mg/kg
Rat tails
  ED50: 0.42 mg/kg
  Therapeutic index LD 50 / ED 50: > 1,190
Morphine-dependent rats [1]
  Morphine replacement action (elimination of withdrawal symptoms): 0
Morphine-dependent rats [2]
  Morphine-antagonistic action (provocation of withdrawal symptoms): 1

## CN1CC[C@]23c4c5ccc(O)c4O[C@H]2[C@@H](O)C=C[C@H]3[C@H]1C5 [Morphine, reference compound]
Rat tails
  Analgesic action in heat radiation test on rat tails, ED 50: 1.78 mg/kg

## CCC12CCN(CC3CC3)C(Cc3ccc(OCCCOC(C)=O)cc31)C2C (stereo not drawn) [Example 1, 2-Cyclopropylmethyl-5-ethyl-9-methyl-2'-[3-acetoxypropoxy-(1)]-6,7-benzomorphan]
In vivo
  LD50: 352 mg/kg
Rat tails
  ED50: 0.42 mg/kg
  Therapeutic index LD 50 / ED 50: 838
[3]
  Morphine-replacement action (elimination of withdrawal symptoms): 0
[4]
  Morphine-antagonistic action (provocation of withdrawal symptoms): 1-2
Morphine-dependent rats [1]
  Morphine replacement action (elimination of withdrawal symptoms): 0
Morphine-dependent rats [2]
  Morphine-antagonistic action (provocation of withdrawal symptoms): 2
